Assay results from ChEMBL document CHEMBL1201862, “PubChem BioAssay data set” (2004).
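Each compound was tested at five concentrations against cells in 96-well plates for 48 hours. GI50 = concentration required for 50% inhibition of growth.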 Active and inactive are the calls of the source. No stated cut-off is given here; in the data, active = GI50 up to about 1.1 µM and inactive = higher.

What was measured:
Experiment in all cases: DTP human tumour cell line panel, 48 h
KM-20L2 = test system: KM-20L2
MOLT-4 = test system: MOLT-4
NCI-H23 = test system: NCI-H23
DMS-114 = test system: DMS-114
RXF 393 = test system: RXF 393
DMS-273 = test system: DMS-273
OVCAR-3 = test system: OVCAR-3
NCI-H226 = test system: NCI-H226
SN12C = test system: SN12C
SK-MEL-28 = test system: SK-MEL-28
786-0 = test system: 786-0
SF-295 = test system: SF-295
DLD-1 = test system: DLD-1
HOP-92 = test system: HOP-92
XF498 = test system: XF498
SF-539 = test system: SF-539
HT-29 = test system: HT-29
CCRF-CEM = test system: CCRF-CEM
TK-10 = test system: TK-10
SNB-75 = test system: SNB-75
K562 = test system: K562
EKVX = test system: EKVX
HCT-15 = test system: HCT-15
SW-620 = test system: SW-620
SNB-78 = test system: SNB-78
IGROV-1 = test system: IGROV-1
M19-MEL = test system: M19-MEL
HCT-116 = test system: HCT-116
SNB-19 = test system: SNB-19
OVCAR-4 = test system: OVCAR-4
LXFL 529 = test system: LXFL 529
RPMI-8226 = test system: RPMI-8226
OVCAR-5 = test system: OVCAR-5
HL-60 = test system: HL-60
CAKI-1 = test system: CAKI-1
SK-OV-3 = test system: SK-OV-3
COLO 205 = test system: COLO 205
UO-31 = test system: UO-31
OVCAR-8 = test system: OVCAR-8
SR = test system: SR
A498 = test system: A498
M14 = test system: M14
Malme-3M = test system: Malme-3M
NCI-H460 = test system: NCI-H460
SK-MEL-2 = test system: SK-MEL-2
A549 = test system: A549
KM12 = test system: KM12
SF-268 = test system: SF-268
RXF 631 = test system: RXF 631
HOP-18 = test system: HOP-18
NCI-H522 = test system: NCI-H522
ACHN = test system: ACHN
LOX IMVI = test system: LOX IMVI
HOP-62 = test system: HOP-62
U-251 = test system: U-251
UACC-257 = test system: UACC-257
UACC-62 = test system: UACC-62
HCC 2998 = test system: HCC 2998
SK-MEL-5 = test system: SK-MEL-5

With `O=C(CC1=Nc2nnc(CCCCCCCc3nnc4n3C(=O)C(CC(=O)c3ccc5ccccc5c3)=N4)n2C1=O)c1ccc2ccccc2c1` the GI50 (KM-20L2) was > 100 µM (inactive), the GI50 (MOLT-4) was > 100 µM (inactive) and the GI50 (NCI-H23) was > 100 µM (inactive). The GI50 (DMS-114) was > 100 µM (inactive), the GI50 (RXF 393) was > 100 µM (inactive) and the GI50 (DMS-273) was > 100 µM (inactive). For the same compound, the GI50 (OVCAR-3) was > 100 µM (inactive), the GI50 (NCI-H226) was > 100 µM (inactive) and the GI50 (SN12C) was > 100 µM (inactive). The GI50 (SK-MEL-28) was > 100 µM (inactive), the GI50 (786-0) was > 100 µM (inactive) and the GI50 (SF-295) was > 100 µM (inactive). For the same compound, the GI50 (DLD-1) was > 100 µM (inactive), the GI50 (HOP-92) was > 100 µM (inactive) and the GI50 (XF498) was > 100 µM (inactive). The GI50 (SF-539) was > 100 µM (inactive), the GI50 (HT-29) was > 100 µM (inactive) and the GI50 (CCRF-CEM) was > 100 µM (inactive). The GI50 (TK-10) was > 100 µM (inactive), the GI50 (SNB-75) was > 100 µM (inactive) and the GI50 (K562) was > 100 µM (inactive). The GI50 (EKVX) was 63.5 µM (inactive), the GI50 (HCT-15) was greater than 100 µM and the GI50 (SW-620) was > 100 µM (inactive). For the same compound, the GI50 (SNB-78) was > 100 µM (inactive), the GI50 (IGROV-1) was 66.2 µM (inactive) and the GI50 (M19-MEL) was > 100 µM (inactive). The GI50 (HCT-116) was > 100 µM (inactive), the GI50 (SNB-19) was > 100 µM (inactive) and the GI50 (OVCAR-4) was > 100 µM (inactive). The GI50 (LXFL 529) was > 100 µM (inactive), the GI50 (RPMI-8226) was > 100 µM (inactive) and the GI50 (OVCAR-5) was > 100 µM (inactive). The GI50 (HL-60) was > 100 µM (inactive), the GI50 (CAKI-1) was > 100 µM (inactive) and the GI50 (SK-OV-3) was > 100 µM (inactive). The GI50 (COLO 205) was > 100 µM (inactive), the GI50 (UO-31) was > 100 µM (inactive) and the GI50 (OVCAR-8) was > 100 µM (inactive). For the same compound, the GI50 (SR) was > 100 µM (inactive), the GI50 (A498) was < 0.01 µM (active) and the GI50 (M14) was > 100 µM (inactive). The GI50 (Malme-3M) was > 100 µM (inactive), the GI50 (NCI-H460) was > 100 µM (inactive) and the GI50 (SK-MEL-2) was > 100 µM (inactive). The GI50 (A549) was > 100 µM (inactive), the GI50 (KM12) was > 100 µM (inactive) and the GI50 (SF-268) was > 100 µM (inactive). For the same compound, the GI50 (RXF 631) was 51.9 µM (inactive), the GI50 (HOP-18) was > 100 µM (inactive) and the GI50 (NCI-H522) was > 100 µM (inactive). For the same compound, the GI50 (ACHN) was > 100 µM (inactive), the GI50 (LOX IMVI) was > 100 µM (inactive) and the GI50 (HOP-62) was > 100 µM (inactive). The GI50 (U-251) was > 100 µM (inactive), the GI50 (UACC-257) was > 100 µM (inactive) and the GI50 (UACC-62) was > 100 µM (inactive). For the same compound, the GI50 (HCC 2998) was > 100 µM (inactive).

With `CC(=O)O/C=C(/C=C/OC(C)=O)C(C/C=C(\C)C#CC=C(C)C)OC(C)=O` (stereo not given) the GI50 (KM-20L2) was 53.1 µM (inactive), the GI50 (MOLT-4) was 21.1 µM (inactive) and the GI50 (NCI-H23) was 38.6 µM (inactive). The GI50 (DMS-114) was 19 µM (inactive), the GI50 (DMS-273) was 50.8 µM (inactive) and the GI50 (OVCAR-3) was 24.2 µM (inactive). The GI50 (NCI-H226) was > 100 µM (inactive), the GI50 (SN12C) was 36.6 µM (inactive) and the GI50 (786-0) was 36.6 µM (inactive). The GI50 (SF-295) was 61.5 µM (inactive), the GI50 (DLD-1) was 45.8 µM (inactive) and the GI50 (HOP-92) was 36.6 µM (inactive). For the same compound, the GI50 (XF498) was 37.2 µM (inactive), the GI50 (SF-539) was 22.8 µM (inactive) and the GI50 (HT-29) was 30.7 µM (inactive). For the same compound, the GI50 (CCRF-CEM) was 26.1 µM (inactive), the GI50 (TK-10) was > 100 µM (inactive) and the GI50 (K562) was 21 µM (inactive). For the same compound, the GI50 (EKVX) was 93.5 µM (inactive), the GI50 (HCT-15) was 17.7 µM and the GI50 (SW-620) was 42.3 µM (inactive). The GI50 (SNB-78) was 29.9 µM (inactive), the GI50 (IGROV-1) was 30.4 µM (inactive) and the GI50 (M19-MEL) was 20.8 µM (inactive). For the same compound, the GI50 (HCT-116) was 18.3 µM (inactive), the GI50 (SNB-19) was > 100 µM (inactive) and the GI50 (OVCAR-4) was 38.4 µM (inactive). For the same compound, the GI50 (LXFL 529) was 19.3 µM (inactive), the GI50 (RPMI-8226) was 25.8 µM (inactive) and the GI50 (OVCAR-5) was > 100 µM (inactive). For the same compound, the GI50 (HL-60) was 8.51 µM (inactive), the GI50 (CAKI-1) was > 100 µM (inactive) and the GI50 (SK-OV-3) was > 100 µM (inactive). The GI50 (COLO 205) was 27.9 µM (inactive), the GI50 (UO-31) was 58.2 µM (inactive) and the GI50 (OVCAR-8) was 37 µM (inactive). For the same compound, the GI50 (A498) was > 100 µM (inactive), the GI50 (M14) was 34.1 µM (inactive) and the GI50 (Malme-3M) was 72.6 µM (inactive). The GI50 (SK-MEL-5) was 72.6 µM (inactive), the GI50 (NCI-H460) was > 100 µM (inactive) and the GI50 (SK-MEL-2) was > 100 µM (inactive). For the same compound, the GI50 (A549) was > 100 µM (inactive), the GI50 (KM12) was 23.1 µM (inactive) and the GI50 (SF-268) was > 100 µM (inactive). For the same compound, the GI50 (RXF 631) was > 100 µM (inactive), the GI50 (HOP-18) was 33.3 µM (inactive) and the GI50 (NCI-H522) was 25.2 µM (inactive). The GI50 (ACHN) was 61.1 µM (inactive), the GI50 (LOX IMVI) was 26.1 µM (inactive) and the GI50 (HOP-62) was > 100 µM (inactive). The GI50 (U-251) was 38.5 µM (inactive), the GI50 (UACC-257) was 33.7 µM (inactive) and the GI50 (UACC-62) was 27.4 µM (inactive). For the same compound, the GI50 (HCC 2998) was > 100 µM (inactive).

For `COC(=O)/C(=N\Nc1nc(S)nn1N)C(C#N)c1ccc(Cl)cc1` (stereo not given), the GI50 (KM-20L2) was > 100 µM (inactive), the GI50 (NCI-H23) was > 100 µM (inactive) and the GI50 (DMS-114) was > 100 µM (inactive). The GI50 (RXF 393) was > 100 µM (inactive), the GI50 (DMS-273) was > 100 µM (inactive) and the GI50 (OVCAR-3) was > 100 µM (inactive). The GI50 (NCI-H226) was > 100 µM (inactive), the GI50 (SN12C) was > 100 µM (inactive) and the GI50 (SK-MEL-28) was > 100 µM (inactive). For the same compound, the GI50 (786-0) was > 100 µM (inactive), the GI50 (SF-295) was > 100 µM (inactive) and the GI50 (DLD-1) was > 100 µM (inactive). For the same compound, the GI50 (HOP-92) was > 100 µM (inactive), the GI50 (XF498) was > 100 µM (inactive) and the GI50 (SF-539) was > 100 µM (inactive). For the same compound, the GI50 (HT-29) was > 100 µM (inactive), the GI50 (TK-10) was > 100 µM (inactive) and the GI50 (SNB-75) was > 100 µM (inactive). For the same compound, the GI50 (EKVX) was > 100 µM (inactive), the GI50 (HCT-15) was greater than 100 µM and the GI50 (SW-620) was > 100 µM (inactive). The GI50 (SNB-78) was > 100 µM (inactive), the GI50 (IGROV-1) was > 100 µM (inactive) and the GI50 (M19-MEL) was > 100 µM (inactive). For the same compound, the GI50 (HCT-116) was > 100 µM (inactive), the GI50 (SNB-19) was > 100 µM (inactive) and the GI50 (OVCAR-4) was > 100 µM (inactive). The GI50 (LXFL 529) was > 100 µM (inactive), the GI50 (RPMI-8226) was > 100 µM (inactive) and the GI50 (OVCAR-5) was > 100 µM (inactive). For the same compound, the GI50 (CAKI-1) was > 100 µM (inactive), the GI50 (SK-OV-3) was > 100 µM (inactive) and the GI50 (COLO 205) was > 100 µM (inactive). The GI50 (UO-31) was > 100 µM (inactive), the GI50 (OVCAR-8) was > 100 µM (inactive) and the GI50 (A498) was > 100 µM (inactive). The GI50 (M14) was > 100 µM (inactive), the GI50 (Malme-3M) was > 100 µM (inactive) and the GI50 (NCI-H460) was > 100 µM (inactive). The GI50 (SK-MEL-2) was > 100 µM (inactive), the GI50 (A549) was > 100 µM (inactive) and the GI50 (KM12) was > 100 µM (inactive). The GI50 (SF-268) was > 100 µM (inactive), the GI50 (RXF 631) was > 100 µM (inactive) and the GI50 (HOP-18) was > 100 µM (inactive). For the same compound, the GI50 (ACHN) was > 100 µM (inactive), the GI50 (LOX IMVI) was > 100 µM (inactive) and the GI50 (HOP-62) was > 100 µM (inactive). For the same compound, the GI50 (U-251) was > 100 µM (inactive), the GI50 (UACC-257) was > 100 µM (inactive) and the GI50 (UACC-62) was > 100 µM (inactive). For the same compound, the GI50 (HCC 2998) was > 100 µM (inactive).
